Data published in the NIST ThermoML archive (doi:10.1021/acs.jced.9b00507).

Conditions: 100 kPa, Liquid; for viscosity: Concentric cylinders viscometry; for mass density: Vibrating tube method

CCCCCCn1cc[n+](C)c1.O=[N+]([O-])[O-] [1-hexyl-3-methylimidazolium nitrate]
Conditions | mass density [kg/m3] | viscosity [mPa·s]
293.15 K | 1120.3 | 804.17
298.15 K | 1117.5 | 545.25
303.15 K | 1114.3 | 369.14
308.15 K | 1111.1 | 257.59
313.15 K | 1107.8 | 185.67
318.15 K | 1104.7 | 140.18
323.15 K | 1101.6 | 110.94
